Like-named read-outs stand apart in the source and are kept apart here. One block for each molecule: values may come before it.
Key:
[1] = tested on: MCF-7 (breast adenocarcinoma); experiment: MTT cell viability assay, MCF-7; format: cell-based, human; conditions: for Concentration at which cytotoxicity starts, MCF-7: 24 h and 72 h; for IC50: Homo sapiens
Experimental: (§1) Chinese hamster lung fibroblast (V79) cells and human cell lines [MCF-7 (breast adenocarcinoma), SW620 (colorectal adenocarcinoma), and MRC-5 (normal lung fibroblast)] were obtained from the Rio de Janeiro Cell Bank (Rio de Janeiro, RJ, Brazil). The cell lines were grown in DMEM supplemented with 10% heat-inactivated FBS or RPMI-1640 supplemented with 20% FBS, 0.2 mg/mL L-glutamine, 100 IU/mL penicillin, and 100 µg/mL streptomycin. Cells were kept in tissue culture flasks at 37 °C in a humidified atmosphere containing 5% CO2 and were harvested by treatment with 0.15% trypsin −0.08% EDTA in PBS.
(§2) The cytotoxic potential of all compounds was measured by the methylthiazol tetrazolium (MTT) assay in Chinese hamster lung fibroblasts and human cell lines. Cell lines were cultured in a 96-well plate (1 × 10^4 cells/well) in complete media. V79 cells were treated for 24 h with all compounds at concentrations of 1, 10, 50 and100 µM. […] All compounds were dissolved in DMSO and added to the medium to reach the desired concentrations (0.1% of DMSO). The activity of this solvent alone was measured by a blank sample solution containing the same amount of DMSO. After the exposure period, the culture media were replaced with the addition of 100 µL serum-free media containing the 3-(4,5-dimethylthiazol-2-yl)-2,5-diphenyltetrazolium bromide) (MTT) dye (1 mg/mL), and incubated for 3 h at 37 °C After incubation, the supernatant was removed, the residual purple formazan product was solubilized in 150 µL DMSO, and its absorbance was measured at 570 nm. The assay was performed in triplicate.

[2] = ABTS radical cation scavenging assay; format: biochemical
Source text: (§3) Both colorimetric assays are being used to estimate the radical scavenging capacity of organic and inorganic compounds [71, 72]. When DPPH reacts with an antioxidant compound, its free radical property is lost, and its color changes from violet to yellow. In the presence of an antioxidant, the ABTS radical, which has a strong absorption band at 734 nm, will be scavenged, and the reaction mixture will turn from blue to green. The results are expressed as a percentage of inhibition of DPPH radical or ABTS^+ radical when compared to samples from the control group (DMSO) without the compounds/standard (0% of radical inhibition). The experiment was repeated three times at each concentration.
The radical cation ABTS was previously generated with sodium persulfate in the presence of potassium phosphate buffer. Briefly, the ABTS solution diluted in a phosphate buffer saline pH 7.4 was mixed with an aliquot of the compound for 30 min at room temperature in the dark. The ascorbic acid at 1, 10, 100, and 200 µM was used as a positive control to determine the maximal decrease in the ABTS^+ absorbance. The color reaction was measured at 730 nm and the results were expressed as a percentage (%) of the control. The ABTS radical scavenging capacity was calculated by the following equation: % ABTS^+ radical scavenging activity = {(A0 − A1)/A0} × 100 where A0 indicates the absorbance of the blank and A1 indicates the absorbance in the presence of the test sample.

SW620 [3] = experiment: Clonogenic assay, SW620; format: cell-based, human; conditions: 72 h treatment
Experimental: (§4) MCF-7, MRC-5, and SW620 human cell lines were seeded in 6-well plates at a density of 300 cells per well containing 1 mL of medium. […] The cell culture medium was changed to a new medium every 2 days. Cells were washed twice with PBS and fixed with methanol for 30 min, followed by staining with 0.5% crystal violet. The assay was performed in triplicate. Colonies were manually counted, and colony survival was presented as a percentage relative to the respective negative control.

SW620 [4] = experiment: Alkaline comet assay, SW620; format: cell-based, human; conditions: for Damage Índex (DI) ± SD, SW620: 3 h
Experimental: (§5) For genotoxicity assays, 1.0 × 10^4 cells were seeded on twenty-four-well plates and incubated for 24 h. […] Each dose was evaluated by three independent experiments. The alkaline comet assay was performed as described by Singh et al.. Following treatment, cells were trypsinized and resuspended in a complete medium. Slides were prepared with 20 μL of cellular suspension and were dissolved in 0.75% low melting-point agarose. Slides were immersed in cold lysis buffer (2.5 M NaCl, 100 mM EDTA, 10 mM Tris, 1% Triton X-100, 10% DMSO, pH 10) for at least 1 h. Slides were placed in an electrophoresis chamber with cold alkaline buffer (300 mM NaOH and 1 mM de EDTA, pH > 13) to unwind the DNA. Electrophoresis was performed at 0.7 V/cm, 300 mA for 30 min at 4 °C. Slides were then neutralized with Tris–HCl buffer (pH 7.5) for 15 min and stored at room temperature. Slides were stained with silver staining protocol. The gels were then left to dry overnight at room temperature before being analyzed. From two replicate slides, 100 cells were selected and analyzed for DNA migration. Migration of DNA fragments was determined according to comet class as described by Azqueta: class 0, intact nuclei, without tail; class 1, nuclei with tail less than the diameter of the nucleus; class 2, tail size varying between one and two times the diameter of the nucleus; class 3, tail size varying between two and three times the diameter of the nucleus; and class 4, tail size more than three times the diameter of the nucleus but with the head and tail of the comet still distinguishable. The DI ranges from 0 (100 completely undamaged cells × 0) to 400 (100 cells with maximum damage × 4).

[5] = tested on: SW620 (colorectal adenocarcinoma); experiment: MTT cell viability assay, SW620; format: cell-based, human; conditions: for Concentration at which cytotoxicity starts, SW620: 24 h and 72 h; for IC50: Homo sapiens
Experimental: as §1, §2

[6] = tested on: MRC-5 (normal lung fibroblast); experiment: MTT cell viability assay, MRC-5; format: cell-based, human; conditions: for Concentration at which cytotoxicity starts, MRC-5: 24 h and 72 h; for IC50: Homo sapiens
Experimental: as §1, §2

MCF-7 [7] = experiment: Alkaline comet assay, MCF-7; format: cell-based, human; conditions: for Damage Índex (DI) ± SD, MCF-7: 3 h
Experimental: as §5

MRC-5 [8] = experiment: Alkaline comet assay, MRC-5; format: cell-based, human; conditions: for Damage Índex (DI) ± SD, MRC-5: 3 h
Experimental: as §5

MCF-7 [9] = experiment: Clonogenic assay, MCF-7; format: cell-based, human; conditions: 72 h treatment
Experimental: as §4

V79 cells = experiment: MTT cell viability assay, V79 cells; format: cell-based, Chinese hamster; conditions: Cricetulus griseus, V79, 24 h; read-out: IC50 V79 cell line
Experimental: as §1
The cytotoxic potential of all compounds was measured by the methylthiazol tetrazolium (MTT) assay in Chinese hamster lung fibroblasts and human cell lines. Cell lines were cultured in a 96-well plate (1 × 10^4 cells/well) in complete media. […] The activity of this solvent alone was measured by a blank sample solution containing the same amount of DMSO. After the exposure period, the culture media were replaced with the addition of 100 µL serum-free media containing the 3-(4,5-dimethylthiazol-2-yl)-2,5-diphenyltetrazolium bromide) (MTT) dye (1 mg/mL), and incubated for 3 h at 37 °C After incubation, the supernatant was removed, the residual purple formazan product was solubilized in 150 µL DMSO, and its absorbance was measured at 570 nm. […]

[10] = DPPH radical scavenging assay; format: biochemical; conditions: for Antioxidant ability in the DPPH radical capture assay: test doses 1-200 µM
Source text: as §3
DPPH assay: To determine the 1,1-diphenylpicrylhydrazyl (DPPH) radical scavenging activity, different concentrations of compounds (1, 5, 10, 50, 100, and 200 μM) were mixed with a methanolic solution of 0.1 mM DPPH radical for 30 min at 30 °C in the dark. The absorbance of the mixture was measured spectrophotometrically at 517 nm. The coloration change of the DPPH ethanolic solution from deep purple to yellow indicates the presence of antioxidants and then the free radical scavenging effect of these compounds. The ascorbic acid at 1, 10, 100, and 200 µM was used as a positive control to determine the maximal decrease in the DPPH absorbance. The percentage of DPPH radical scavenging activity was calculated by the following equation:% DPPH radical scavenging activity = {(A0 − A1)/A0} × 100 where A0 is the absorbance of the control, and A1 is the absorbance of the compounds/standard.

[11] = tested on: SW620 (colorectal adenocarcinoma); conditions: 72 h; cited from earlier work
[12] = tested on: MCF-7 (breast adenocarcinoma); set-up: method as in PMID 36592511; conditions: 72 h; cited from earlier work
MRC-5 [13] = experiment: Clonogenic assay, MRC-5; format: cell-based, human; conditions: 72 h treatment; general statement covers MCF-7, SW620 and MRC-5
Experimental: as §4

IC50 ([1]; MCF7, 24 h): 30.5 ± 4.4 µM
IC50 ([1]; MCF7, 72 h): 28.6 µM
IC50 ([2]; concentration to decrease 50% of ABTS+ radical formation): 7.5 ± 2.2 µM
IC50 ([5]; SW-620, 24 h): 27.6 ± 1.2 µM
IC50 ([5]; SW-620, 72 h): 16.4 µM
SMILES: CC(C)(C)c1cc(/C=N/CCNc2ccccc2)c(O)c(C(C)(C)C)c1 [1a]
Concentration at which cytotoxicity starts, MCF-7 [1]: 10 µM
Concentration from which ABTS+ radical scavenging activity is present [2]: 5 µM
Imax (% of maximal inhibition), ABTS+ [2]: up to 87%
Inhibition of colony survival, SW620 compared with MRC-5 (SW620 [3]): not selective
Concentrations that increase damage index (DI), SW620 (SW620 [4]): 50 µM and 100 µM
Damage Índex (DI) ± SD, SW620 (SW620 [4]; 1 μM): 16.7 ± 2.5
Damage Índex (DI) ± SD, SW620 (SW620 [4]; 10 μM): 21.3 ± 6.7
Damage Índex (DI) ± SD, SW620 (SW620 [4]; 50 μM): 107.0 ± 7.2
Damage Índex (DI) ± SD, SW620 (SW620 [4]; 100 μM): 212.3 ± 2.5
Concentration at which cytotoxicity starts, SW620 [5]: 10 µM
Concentration at which cytotoxicity starts, MRC-5 [6]: 10 µM
IC50 ([6]; MRC5, 24 h): 14.7 ± 1.1 µM
IC50 ([6]; MRC5, 72 h): 17.1 µM
Concentrations that increase damage index (DI), MCF-7 (MCF-7 [7]): 10 to 100 µM
Damage Índex (DI) ± SD, MCF-7 (MCF-7 [7]; 1 μM): 14.7 ± 3.2
Damage Índex (DI) ± SD, MCF-7 (MCF-7 [7]; 10 μM): 34.3 ± 4.2
Damage Índex (DI) ± SD, MCF-7 (MCF-7 [7]; 50 μM): 100.7 ± 2.9
Damage Índex (DI) ± SD, MCF-7 (MCF-7 [7]; 100 μM): 154.7 ± 7.2
Concentrations that increase damage index (DI), MRC-5 (MRC-5 [8]): 10 to 100 µM
Damage Índex (DI) ± SD, MRC-5 (MRC-5 [8]; 1 μM): 19.3 ± 3.9
Damage Índex (DI) ± SD, MRC-5 (MRC-5 [8]; 10 μM): 39.7 ± 9.5
Damage Índex (DI) ± SD, MRC-5 (MRC-5 [8]; 50 μM): 121.3 ± 10.0
Damage Índex (DI) ± SD, MRC-5 (MRC-5 [8]; 100 μM): 200.3 ± 22.0
Inhibition of colony survival, MCF-7 compared with MRC-5 (MCF-7 [9]): not selective
IC50 (V79 cells): 23 µM
Antioxidant ability in the DPPH radical capture assay [10]: inability to be antioxidants

IC50 ([1]; MCF7, 24 h): 111 ± 9.5 µM
IC50 ([1]; MCF7, 72 h): 44.5 µM
IC50 ([5]; SW-620, 24 h): 41.9 ± 9.7 µM
IC50 ([5]; SW-620, 72 h): 10.5 µM
SMILES: CC(C)(C)c1cc(/C=N/c2cccc3cccnc23)c(O)c(C(C)(C)C)c1 [1b, [6-(C9H6N-8-(N=CH))-2,4-di-tert-butyl-(OHC6H2)]]
Concentration at which cytotoxicity starts, MCF-7 [1]: 10 µM
ABTS+ radical scavenging activity ([2]; doses 1-200 µM): inactive at all doses
Inhibition of colony survival, SW620 compared with MRC-5 (SW620 [3]): more potent inhibitory effect on the SW620 cells than on MRC-5 cells
Concentrations that increase damage index (DI), SW620 (SW620 [4]): ≥ 10 µM
Damage Índex (DI) ± SD, SW620 (SW620 [4]; 1 μM): 10.0 ± 1.0
Damage Índex (DI) ± SD, SW620 (SW620 [4]; 10 μM): 34.7 ± 7.4
Damage Índex (DI) ± SD, SW620 (SW620 [4]; 50 μM): 120.0 ± 5.3
Damage Índex (DI) ± SD, SW620 (SW620 [4]; 100 μM): 236.0 ± 8.2
Concentration at which cytotoxicity starts, SW620 [5]: 1 µM
Inhibition of cell proliferation at the highest treatment concentrations tested (colony survival) (MRC-5 [13]): not statistically significant
Concentration at which cytotoxicity starts, MRC-5 [6]: 10 µM
IC50 ([6]; MRC5, 24 h): 63.4 ± 5.5 µM
IC50 ([6]; MRC5, 72 h): 15.5 µM
Concentrations that increase damage index (DI), MCF-7 (MCF-7 [7]): 50 µM and 100 µM
Damage Índex (DI) ± SD, MCF-7 (MCF-7 [7]; 1 μM): 16.0 ± 4.0
Damage Índex (DI) ± SD, MCF-7 (MCF-7 [7]; 10 μM): 22.3 ± 6.4
Damage Índex (DI) ± SD, MCF-7 (MCF-7 [7]; 50 μM): 52.7 ± 9.5
Damage Índex (DI) ± SD, MCF-7 (MCF-7 [7]; 100 μM): 102.0 ± 6.0
Concentrations that increase damage index (DI), MRC-5 (MRC-5 [8]): 50 µM and 100 µM
Damage Índex (DI) ± SD, MRC-5 (MRC-5 [8]; 1 μM): 16.3 ± 2.5
Damage Índex (DI) ± SD, MRC-5 (MRC-5 [8]; 10 μM): 20.0 ± 5.2
Damage Índex (DI) ± SD, MRC-5 (MRC-5 [8]; 50 μM): 101.0 ± 5.0
Damage Índex (DI) ± SD, MRC-5 (MRC-5 [8]; 100 μM): 135.0 ± 6.2
IC50 (V79 cells): 69 ± 9 µM
Antioxidant ability in the DPPH radical capture assay [10]: inability to be antioxidants

The next lines start with the molecule.

SMILES: O=C1O[C@H]([C@@H](O)CO)C(O)=C1O [Ascorbic acid, ascorbic acid, reference compound]
IC50 ([10]; concentration to decrease 50% of DPPH radical formation): 17 µM

SMILES: O=c1[nH]cc(F)c(=O)[nH]1 [5-Fluorouracil]
IC50 [11]: 4 µM

SMILES: N.N.[Cl][Pt][Cl] [cisplatin]
IC50 [12]: 12.7 ± 0.1 µM

From publication PMC9960331, “Antioxidant and Anticancer Potential of the New Cu(II) Complexes Bearing Imine-Phenolate Ligands with Pendant Amine N-Donor Groups” (Pharmaceutics, 2023)
